In ChEMBL document CHEMBL5584307, “Discovery of a Potent and Orally Bioavailable Xanthine Oxidase/Urate Transporter 1 Dual Inhibitor as a Potential Treatment for Hyperuricemia and Gout” (J Med Chem, 2024):
One block for each molecule: values may come before it.

What was measured:
[1] = biological target: T1, Xanthine dehydrogenase/oxidase (Homo sapiens, UniProt P47989); assay: Inhibition of xanthine oxidase (unknown origin) by absorbance based assay
[2] = biological target: T2, Solute carrier family 22 member 12 (Homo sapiens, UniProt Q96S37); assay: Inhibition of URAT1 (unknown origin) by absorbance based assay
T2 sequence (Q96S37 whole entry): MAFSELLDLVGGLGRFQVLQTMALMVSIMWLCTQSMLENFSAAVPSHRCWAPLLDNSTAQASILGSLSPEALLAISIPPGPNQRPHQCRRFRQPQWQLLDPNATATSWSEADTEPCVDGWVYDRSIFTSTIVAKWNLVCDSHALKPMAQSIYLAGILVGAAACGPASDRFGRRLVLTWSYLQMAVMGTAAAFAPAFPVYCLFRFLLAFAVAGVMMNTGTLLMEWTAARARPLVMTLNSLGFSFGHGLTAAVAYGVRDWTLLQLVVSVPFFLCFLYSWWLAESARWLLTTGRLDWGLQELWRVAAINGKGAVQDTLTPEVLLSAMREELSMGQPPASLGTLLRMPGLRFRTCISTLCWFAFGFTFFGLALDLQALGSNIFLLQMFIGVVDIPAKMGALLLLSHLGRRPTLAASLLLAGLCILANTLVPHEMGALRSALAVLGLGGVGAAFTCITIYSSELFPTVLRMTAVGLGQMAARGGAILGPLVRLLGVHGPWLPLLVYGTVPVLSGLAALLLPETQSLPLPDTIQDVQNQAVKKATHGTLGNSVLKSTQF

[3] = Cmax in overnight-fasted Sprague-Dawley rat at 5 mg/kg, po measured upto 24 hrs by LC-MS/MS analysis; assay type: ADME, organism-based; details: in vivo
[4] = Oral bioavailability in overnight-fasted Sprague-Dawley rat at 5 mg/kg measured upto 24 hrs by LC-MS/MS analysis; assay type: ADME, organism-based; details: in vivo
[5] = Half life in overnight-fasted Sprague-Dawley rat at 5 mg/kg, po measured upto 24 hrs by LC-MS/MS analysis; assay type: ADME, organism-based; details: in vivo
[6] = Clearance in overnight-fasted Sprague-Dawley rat at 1 mg/kg, iv measured upto 24 hrs by LC-MS/MS analysis; assay type: ADME, organism-based; details: in vivo
[7] = AUC (last) in overnight-fasted Sprague-Dawley rat at 5 mg/kg, po measured upto 24 hrs by LC-MS/MS analysis; assay type: ADME, organism-based; details: in vivo
[8] = Volume of distribution at steady state in overnight-fasted Sprague-Dawley rat at 5 mg/kg, po or 1 mg/kg, iv measured upto 24 hrs by LC-MS/MS analysis; assay type: ADME, organism-based; details: in vivo
[9] = AUC (last) in overnight-fasted Sprague-Dawley rat at 1 mg/kg, iv measured upto 24 hrs by LC-MS/MS analysis; assay type: ADME, organism-based; details: in vivo
Sapajus apella [10] = assay: Urate lowering effect in Tufted capuchin monkey assessed as serum xanthine level at 2 mg/kg/day, po qd for 3 days consecutively; assay type: functional; details: time 3 day
Sapajus apella [11] = details: dose 2.0 mg/kg/day, route po, time 3.0 day
Sapajus apella [12] = assay: Urate lowering effect in Tufted capuchin monkey assessed as urine xanthine level at 2 mg/kg/day, po qd for 3 days consecutively; assay type: functional; details: time 3 day
[13] = biological target: T2, Solute carrier family 22 member 12; assay: Inhibition of URAT1 (unknown origin) at 10 uM by absorbance based assay
Sapajus apella [14] = assay: Urate lowering effect in Tufted capuchin monkey assessed as fraction excretion of uric acid at 30 mg/kg/day, po qd for 3 days consecutively relative to control; assay type: functional; details: time 3 day
[15] = biological target: T1, Xanthine dehydrogenase/oxidase; assay: Inhibition of xanthine oxidase (unknown origin) at 10 uM by absorbance based assay
Sapajus apella [16] = details: dose 30.0 mg/kg/day, route po, time 3.0 day

T1 sequence (P47989 whole entry): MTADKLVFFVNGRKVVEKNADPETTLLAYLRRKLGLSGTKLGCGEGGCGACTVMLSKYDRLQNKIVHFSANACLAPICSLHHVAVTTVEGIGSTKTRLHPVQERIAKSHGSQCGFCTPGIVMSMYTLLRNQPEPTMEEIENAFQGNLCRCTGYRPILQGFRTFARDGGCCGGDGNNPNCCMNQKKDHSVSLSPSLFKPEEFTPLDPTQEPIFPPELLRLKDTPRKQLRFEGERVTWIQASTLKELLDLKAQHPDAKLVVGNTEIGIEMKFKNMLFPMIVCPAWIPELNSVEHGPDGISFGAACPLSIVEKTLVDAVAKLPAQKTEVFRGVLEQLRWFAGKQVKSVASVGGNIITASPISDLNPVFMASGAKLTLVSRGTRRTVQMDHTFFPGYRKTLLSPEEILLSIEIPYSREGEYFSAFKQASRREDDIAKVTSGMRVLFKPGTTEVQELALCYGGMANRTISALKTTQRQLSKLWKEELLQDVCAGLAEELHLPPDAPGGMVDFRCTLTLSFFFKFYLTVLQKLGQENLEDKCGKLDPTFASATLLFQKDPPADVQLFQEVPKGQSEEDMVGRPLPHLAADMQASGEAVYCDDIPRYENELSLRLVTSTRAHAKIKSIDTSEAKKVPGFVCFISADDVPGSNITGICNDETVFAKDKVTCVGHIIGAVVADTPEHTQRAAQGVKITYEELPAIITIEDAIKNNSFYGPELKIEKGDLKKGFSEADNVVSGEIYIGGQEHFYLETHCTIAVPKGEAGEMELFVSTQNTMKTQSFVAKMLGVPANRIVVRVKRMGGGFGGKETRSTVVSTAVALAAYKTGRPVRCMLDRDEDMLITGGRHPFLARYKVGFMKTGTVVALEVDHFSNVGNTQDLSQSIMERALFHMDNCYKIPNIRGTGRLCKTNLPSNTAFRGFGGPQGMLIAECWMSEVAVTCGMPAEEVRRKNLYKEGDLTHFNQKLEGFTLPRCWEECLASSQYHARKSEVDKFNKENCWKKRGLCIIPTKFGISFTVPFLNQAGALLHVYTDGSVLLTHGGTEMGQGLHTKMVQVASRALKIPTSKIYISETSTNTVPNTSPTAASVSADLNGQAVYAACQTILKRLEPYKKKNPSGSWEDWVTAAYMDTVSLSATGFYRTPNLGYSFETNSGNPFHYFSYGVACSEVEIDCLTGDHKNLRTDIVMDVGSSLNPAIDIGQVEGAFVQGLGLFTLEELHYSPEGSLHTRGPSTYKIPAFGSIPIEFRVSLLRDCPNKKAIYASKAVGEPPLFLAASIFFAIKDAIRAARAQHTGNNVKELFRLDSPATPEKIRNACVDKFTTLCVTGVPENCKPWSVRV

- IC50 [1]: 0.027 µM
- IC50 [2]: > 10 µM
Structure (SMILES): N#Cc1cc(-c2ccc(C(=O)O)c(O)c2)c2cc[nH]c2c1

- Cmax [3]: 3.7 µg/mL
- bioavailability [4]: 93.9%
- half-life [5]: 3.05 h
- clearance [6]: 0.166 L/h/kg
- IC50 [2]: 0.037 µM
- AUC(0-t) at 24 h [7]: 28.1 µg·h/mL
- Vdss [8]: 0.4 L/kg
- AUC(0-t) at 24 h [9]: 5.48 µg·h/mL
Structure (SMILES): N#Cc1cc(-c2ccc(C(=O)O)c(O)c2)c2oc(Cl)cc2c1

- Cmax [3]: 2.05 µg/mL
- bioavailability [4]: 55.8%
- half-life [5]: 1.86 h
- clearance [6]: 1.12 L/h/kg
- AUC(0-t) at 24 h [7]: 2.43 µg·h/mL
- Vdss [8]: 0.4 L/kg
- AUC(0-t) at 24 h [9]: 0.902 µg·h/mL
Structure (SMILES): N#Cc1cc(-c2ccc(C(=O)O)c(O)c2)c2ccsc2c1

- IC50 [1]: 0.061 µM
- IC50 [2]: 0.623 µM
Structure (SMILES): Cc1cc2cc(C#N)cc(-c3ccc(C(=O)O)c(O)c3)c2o1

- IC50 [1]: 0.133 µM
- IC50 [2]: 0.444 µM
Structure (SMILES): N#Cc1cc(-c2ccc(C(=O)O)c(O)c2)c2sccc2c1

- Cmax [3]: 6.55 µg/mL
- bioavailability [4]: 99.5%
- half-life [5]: 2.66 h
- IC50 [1]: 0.039 µM
- clearance [6]: 0.116 L/h/kg
- AUC(0-t) at 24 h [7]: 43.2 µg·h/mL
- Vdss [8]: 0.155 L/kg
- AUC(0-t) at 24 h [9]: 8.53 µg·h/mL
Structure (SMILES): N#Cc1cc(-c2ccc(C(=O)O)c(O)c2)c2ccoc2c1

- IC50 [1]: 0.101 µM
- IC50 [2]: 3.64 µM
Structure (SMILES): N#Cc1cc(-c2ccc(C(=O)O)c(O)c2)c2ncsc2c1

- Cmax [3]: 6.83 µg/mL
- bioavailability [4]: 131%
- half-life [5]: 3.45 h
- clearance [6]: 0.144 L/h/kg
- AUC(0-t) at 24 h [7]: 44.4 µg·h/mL
- Vdss [8]: 0.399 L/kg
- AUC(0-t) at 24 h [9]: 6.86 µg·h/mL
Structure (SMILES): N#Cc1cc(-c2ccc(C(=O)O)c(O)c2)c2occc2c1

- IC50 [1]: 0.56 µM
- IC50 [2]: 0.107 µM
Structure (SMILES): N#Cc1cc2c(c(-c3ccc(C(=O)O)c(O)c3)c1)CCC2

Further lines, the molecule ahead of its results:

Structure (SMILES): N#Cc1cc2c(c(-c3ccc(C(=O)O)c(O)c3)c1)OCC2
- IC50 [1]: 0.046 µM
- IC50 [2]: 0.352 µM

Structure (SMILES): CC(C)COc1ccc(-c2ccc(C(=O)O)c(O)c2)cc1C#N
- IC50 [1]: 0.018 µM
- IC50 [2]: 8.3 µM

Structure (SMILES): N#Cc1cc(-c2ccc(C(=O)O)cc2)c2occc2c1
- IC50 [1]: 0.591 µM
- IC50 [2]: 0.598 µM

Structure (SMILES): N#Cc1cc(-c2ccc(C(=O)O)c(O)c2)c2occ(C(F)(F)F)c2c1
- IC50 [1]: 0.008 µM
- IC50 [2]: 1.65 µM

Structure (SMILES): COc1cc(-c2cc(C#N)cc3ccoc23)ccc1C(=O)O
- IC50 [1]: > 10 µM
- IC50 [2]: 3.75 µM

Structure (SMILES): CC(C)COc1ccc(-c2cccc(O)c2C(=O)O)cc1C#N
- IC50 [1]: > 10 µM
- IC50 [2]: > 10 µM

Structure (SMILES): N#Cc1cc(-c2ccc(C(=O)O)c(O)c2)c2oc(C(F)(F)F)cc2c1
- IC50 [1]: 0.347 µM
- IC50 [2]: 0.104 µM

Structure (SMILES): Cc1nc(-c2ccc(OCC(C)C)c(C#N)c2)sc1C(=O)O [FEBUXOSTAT]
- Activity (Sapajus apella [10]): 6.61 µg·h/mL
- AUC (Sapajus apella [11]): 478000 ng·h/mL
- Activity (Sapajus apella [12]): 32.1 µg·h/mL
- inhibition (INH) [13]: Not Active

Structure (SMILES): CCc1oc2ccccc2c1C(=O)c1cc(Br)c(O)c(Br)c1 [BENZBROMARONE]
- Activity (Sapajus apella [14]): 42.3%
- inhibition (INH) [15]: Not Active
- AUC (Sapajus apella [16]): 894000 ng·h/mL

Structure (SMILES): N#Cc1cccc(-c2ccc(C(=O)O)c(O)c2)c1
- IC50 [1]: 0.037 µM
- IC50 [2]: 2.2 µM

Structure (SMILES): O=C(O)c1ccc(-c2cc(C(F)(F)F)cc3ccoc23)cc1O
- IC50 [1]: 0.388 µM
- IC50 [2]: 3.19 µM
